Laboratory results: patent US20250034122A1, “SUBSTITUTED N-CYANOPYRROLIDINES WITH ACTIVITY AS USP30 INHIBITORS” (MISSION THERAPEUTICS LIMITED, priority 2021, published 2025)

Each molecule was assayed against USP30 (Homo sapiens (Human), UniProt Q70CQ3) (assay: USP30 biochemical IC50 assay (fluorescence polarisation)). Conditions: geomean; USP30 4 nM, 30 min pre-incubation, TAMRA-peptide-ubiquitin FP substrate.
Sequence of USP30 (Q70CQ3 57-517): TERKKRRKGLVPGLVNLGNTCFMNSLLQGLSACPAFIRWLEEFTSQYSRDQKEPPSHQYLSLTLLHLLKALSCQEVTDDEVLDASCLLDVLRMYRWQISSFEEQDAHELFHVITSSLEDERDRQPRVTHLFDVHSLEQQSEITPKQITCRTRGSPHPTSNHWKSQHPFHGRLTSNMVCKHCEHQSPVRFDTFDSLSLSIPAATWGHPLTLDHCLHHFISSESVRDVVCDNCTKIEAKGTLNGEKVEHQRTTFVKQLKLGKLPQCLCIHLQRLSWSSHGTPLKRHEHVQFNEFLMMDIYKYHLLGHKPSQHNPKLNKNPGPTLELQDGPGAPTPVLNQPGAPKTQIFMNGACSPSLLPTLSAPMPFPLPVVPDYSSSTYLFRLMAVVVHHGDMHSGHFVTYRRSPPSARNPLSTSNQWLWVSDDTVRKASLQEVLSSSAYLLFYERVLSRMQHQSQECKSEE
Procedure: Dilution plates were prepared at 21 times the final concentration (2100 μM for a final concentration of 100 μM) in 50% DMSO in a 96-well polypropylene V-bottom plate (Greiner #651201). A typical 8-point dilution series would be 100, 30, 10, 3, 1, 0.3, 0.1, 0.03 μM final. Reactions were performed in duplicate in black 384 well plates (small volume, Greiner 784076) in a final reaction volume of 21 μl.
Either lpl of 50% DMSO or diluted compound was added to the plate. USP30 (Boston Biochem #E582) was diluted in reaction buffer (40 mM Tris, pH 7.5, 0.005% Tween 20, 0.5 mg/ml BSA, 5 mM beta-mercaptoethanol) to achieve a final assay concentration of 4 nM, and 10 μl of diluted USP30 was added to the compound. Enzyme and compound were incubated for 30 min at room temp. Reactions were initiated by the addition of 50 nM of TAMRA labelled peptide linked to ubiquitin via an isopeptide bond as fluorescence polarisation substrate. Reactions were read immediately after addition of substrate and following a 2-hour incubation at room temperature. Readings were performed on a Pherastar Plus (BMG Labtech). λ Excitation 540 nm; λ Emission 590 nm.

SMILES	IC50
N#CN1C[C@H](NC(=O)N2CCC(c3cccc(OC(F)(F)F)c3)C2)C[C@H]1Cn1cccn1 (single isomer, unassigned) [Example 37]	120 nM
N#CN1C[C@H](NC(=O)c2cc(-c3cccc(OC(F)(F)F)c3)ccn2)C[C@H]1Cn1ccnn1 [Example 25, N-((3R,5S)-5-((1H-1,2,3-Triazol-1-yl)methyl)-1-cyanopyrrolidin-3-yl)-4-(3-(trifluoromethoxy)phenyl)picolinamide]	9 nM
N#CN1C[C@H](NC(=O)c2ncc(-c3cccc(OC(F)(F)F)c3)o2)C[C@H]1Cn1cccn1 [Example 27, N-((3R,5S)-5-((1H-Pyrazol-1-yl)methyl)-1-cyanopyrrolidin-3-yl)-5-(3-(trifluoromethoxy)phenyl)oxazole-2-carboxamide]	9 nM
Cc1ccnn1C[C@@H]1C[C@@H](NC(=O)c2ncc(-c3cccc(OC(F)(F)F)c3)o2)CN1C#N [Example 29, N-((3R,5S)-1-Cyano-5-((5-methyl-1H-pyrazol-1-yl)methyl)pyrrolidin-3-yl)-5-(3-(trifluoromethoxy)phenyl)oxazole-2-carboxamide]	55 nM
Cn1ncc2cc(-c3ccc(C(=O)N[C@@H]4C[C@@H](Cn5cccn5)N(C#N)C4)c(F)c3)ccc21 [Example 34, N-((3R,5S)-5-((1H-Pyrazol-1-yl)methyl)-1-cyanopyrrolidin-3-yl)-2-fluoro-4-(1-methyl-1H-indazol-5-yl)benzamide]	44 nM
N#CN1C[C@H](NC(=O)N2CCC(c3cccc(OC(F)(F)F)c3)C2)C[C@H]1Cn1cccn1 (stereo partly drawn) [Example 36, N-((3R,5S)-5-((1H-Pyrazol-1-yl)methyl)-1-cyanopyrrolidin-3-yl)-3-(3-(trifluoromethoxy)phenyl) pyrrolidine-1-carboxamide]	100 nM
N#CN1C[C@H](NC(=O)N2CCC(c3cccc(OC(F)(F)F)c3)C2)C[C@H]1Cn1cccn1 (stereo partly drawn) [Example 38]	210 nM
N#CN1C[C@H](NC(=O)c2ncc(-c3ccc(F)c(OC(F)(F)F)c3)o2)C[C@H]1Cn1ccnn1 [Example 39, N-((3R,5S)-5-((1H-1,2,3-Triazol-1-yl)methyl)-1-cyanopyrrolidin-3-yl)-5-(4-fluoro-3-(trifluoromethoxy)phenyl)oxazole-2-carboxamide]	8 nM
N#Cc1cnc(N2CCCC2)c(-c2nnc(C(=O)N[C@@H]3C[C@@H](Cn4ccnn4)N(C#N)C3)o2)c1 [Example 41, N-((3R,5S)-5-((1H-1,2,3-Triazol-1-yl)methyl)-1-cyanopyrrolidin-3-yl)-5-(5-cyano-2-(pyrrolidin-1-yl)pyridin-3-yl)-1,3,4-oxadiazole-2-carboxamide]	9 nM
N#CN1C[C@H](NC(=O)c2nnc(-c3cc(OC(F)(F)F)ccc3Cl)o2)C[C@H]1Cn1ccnn1 [Example 42, N-((3R,5S)-5-((1H-1,2,3-Triazol-1-yl)methyl)-1-cyanopyrrolidin-3-yl)-5-(2-chloro-5-(trifluoromethoxy)phenyl)-1,3,4-oxadiazole-2-carboxamide]	6 nM
N#CN1C[C@H](NC(=O)c2nnc(-c3cccc(OC(F)(F)F)c3)o2)C[C@H]1Cn1ccnn1 [Example 43, N-((3R,5S)-5-((1H-1,2,3-Triazol-1-yl)methyl)-1-cyanopyrrolidin-3-yl)-5-(3-(trifluoromethoxy)phenyl)-1,3,4-oxadiazole-2-carboxamide]	12 nM
N#CN1C[C@H](NC(=O)c2nnc(-c3cc(OC(F)(F)F)ccc3C3CC3)o2)C[C@H]1Cn1cccn1 [Example 44, N-((3R,5S)-5-((1H-Pyrazol-1-yl)methyl)-1-cyanopyrrolidin-3-yl)-5-(2-cyclopropyl-5-(trifluoromethoxy)phenyl)-1,3,4-oxadiazole-2-carboxamide]	5 nM
N#CN1C[C@H](NC(=O)c2nnc(-c3cc(OC(F)(F)F)ccc3C3CC3)o2)C[C@H]1Cn1nccn1 [Example 45, N-((3R,5S)-5-((2H-1,2,3-Triazol-2-yl)methyl)-1-cyanopyrrolidin-3-yl)-5-(2-cyclopropyl-5-(trifluoromethoxy)phenyl)-1,3,4-oxadiazole-2-carboxamide]	7 nM
CCCc1ccc(OC(F)(F)F)cc1-c1nnc(C(=O)N[C@@H]2C[C@@H](Cn3ccnn3)N(C#N)C2)o1 [Example 48, N-((3R,5S)-5-((1H-1,2,3-Triazol-1-yl)methyl)-1-cyanopyrrolidin-3-yl)-5-(2-propyl-5-(trifluoromethoxy)phenyl)-1,3,4-oxadiazole-2-carboxamide]	5 nM
N#CN1C[C@H](NC(=O)c2nnc(-c3cc(OC(F)(F)F)ccc3C3CC3)o2)C[C@H]1Cn1cnnc1 [Example 49, N-((3R,5S)-5-((4H-1,2,4-Triazol-4-yl)methyl)-1-cyanopyrrolidin-3-yl)-5-(2-cyclopropyl-5-(trifluoromethoxy)phenyl)-1,3,4-oxadiazole-2-carboxamide]	6 nM
N#CN1C[C@H](NC(=O)c2ccc(-c3cccc4[nH]ncc34)nc2)C[C@H]1Cn1cccn1 [Example 52, N-((3R,5S)-5-((1H-Pyrazol-1-yl)methyl)-1-cyanopyrrolidin-3-yl)-6-(1H-indazol-4-yl)nicotinamide]	15 nM

More lines, in order of falling IC50, values ahead:

IC50	SMILES
27 nM	Cn1ncc2cc(-c3ccc(C(=O)N[C@@H]4C[C@@H](Cn5ccnn5)N(C#N)C4)c(F)c3)ccc21 [Example 35, N-((3R,5S)-5-((1H-1,2,3-Triazol-1-yl)methyl)-1-cyanopyrrolidin-3-yl)-2-fluoro-4-(1-methyl-1H-indazol-5-yl)benzamide]
14 nM	N#CN1C[C@H](NC(=O)c2noc(-c3cc(OC(F)(F)F)ccc3C3CC3)n2)C[C@H]1Cn1ccnn1 [Example 51, N-((3R,5S)-5-((1H-1,2,3-Triazol-1-yl)methyl)-1-cyanopyrrolidin-3-yl)-5-(2-cyclopropyl-5-(trifluoromethoxy)phenyl)-1,2,4-oxadiazole-3-carboxamide]
12 nM	N#Cc1cnc(N2CCC2)c(-c2nnc(C(=O)N[C@@H]3C[C@@H](Cn4ccnn4)N(C#N)C3)o2)c1 [Example 40, N-((3R,5S)-5-((1H-1,2,3-Triazol-1-yl)methyl)-1-cyanopyrrolidin-3-yl)-5-(2-(azetidin-1-yl)-5-cyanopyridin-3-yl)-1,3,4-oxadiazole-2-carboxamide]
10 nM	Cc1ccn(C[C@@H]2C[C@@H](NC(=O)c3ncc(-c4cccc(OC(F)(F)F)c4)o3)CN2C#N)n1 [Example 28, N-((3R,5S)-1-Cyano-5-((3-methyl-1H-pyrazol-1-yl)methyl)pyrrolidin-3-yl)-5-(3-(trifluoromethoxy)phenyl)oxazole-2-carboxamide]
8 nM	N#CN1C[C@H](NC(=O)c2nnc(-c3cc(OC(F)(F)F)ccc3OC3CC3)o2)C[C@H]1Cn1ccnn1 [Example 15, N-((3R,5S)-5-((1H-1,2,3-Triazol-1-yl)methyl)-1-cyanopyrrolidin-3-yl)-5-(2-cyclopropoxy-5-(trifluoromethoxy)phenyl)-1,3,4-oxadiazole-2-carboxamide]
5 nM	N#Cc1ccc(C2CC2)c(-c2cnc(C(=O)N(C3CC3)[C@@H]3C[C@@H](Cn4ccnn4)N(C#N)C3)o2)c1 [Example 1, N-((3R,5S)-5-((1H-1,2,3-Triazol-1-yl)methyl)-1-cyanopyrrolidin-3-yl)-5-(5-cyano-2-cyclopropylphenyl)-N-cyclopropyloxazole-2-carboxamide]
5 nM	N#CN1C[C@H](NC(=O)c2nnc(-c3cc(OC(F)(F)F)ccc3C3CC3)o2)C[C@H]1Cn1cncn1 [Example 47, N-((3R,5S)-5-((1H-1,2,4-Triazol-1-yl)methyl)-1-cyanopyrrolidin-3-yl)-5-(2-cyclopropyl-5-(trifluoromethoxy)phenyl)-1,3,4-oxadiazole-2-carboxamide]
5 nM	N#CN1C[C@H](NC(=O)c2nc(-c3cc(OC(F)(F)F)ccc3C3CC3)no2)C[C@H]1Cn1ccnn1 [Example 50, N-((3R,5S)-5-((1H-1,2,3-Triazol-1-yl)methyl)-1-cyanopyrrolidin-3-yl)-3-(2-cyclopropyl-5-(trifluoromethoxy)phenyl)-1,2,4-oxadiazole-5-carboxamide]
4 nM	CCc1cccc(-c2cnc(C(=O)N[C@@H]3C[C@@H](Cn4ccnn4)N(C#N)C3)o2)c1 [Example 11, N-((3R,5S)-5-((1H-1,2,3-Triazol-1-yl)methyl)-1-cyanopyrrolidin-3-yl)-5-(3-ethylphenyl)oxazole-2-carboxamide]
4 nM	N#Cc1ccc(C2CC2)c(-c2nnc(C(=O)N[C@@H]3C[C@@H](Cn4ccnn4)N(C#N)C3)o2)c1 [Example 14, N-((3R,5S)-5-((1H-1,2,3-Triazol-1-yl)methyl)-1-cyanopyrrolidin-3-yl)-5-(5-cyano-2-cyclopropylphenyl)-1,3,4-oxadiazole-2-carboxamide]
3 nM	N#CN1C[C@H](NC(=O)c2ncc(-c3cccc(OC(F)(F)F)c3)o2)C[C@H]1Cn1ccnn1 [Example 4, N-((3R,5S)-5-((1H-1,2,3-Triazol-1-yl)methyl)-1-cyanopyrrolidin-3-yl)-5-(3-(trifluoromethoxy)phenyl)oxazole-2-carboxamide]
2 nM	N#Cc1ccc(C2CC2)c(-c2cnc(C(=O)N[C@@H]3C[C@@H](Cn4ccnn4)N(C#N)C3)o2)c1 [Example 9, N-((3R,5S)-5-((1H-1,2,3-Triazol-1-yl)methyl)-1-cyanopyrrolidin-3-yl)-5-(5-cyano-2-cyclopropylphenyl)oxazole-2-carboxamide]
2 nM	N#Cc1cccc(-c2cnc(C(=O)N[C@@H]3C[C@@H](Cn4cnnc4)N(C#N)C3)o2)c1 [Example 19, N-((3R,5S)-5-((4H-1,2,4-Triazol-4-yl)methyl)-1-cyanopyrrolidin-3-yl)-5-(3-cyanophenyl)oxazole-2-carboxamide]

These molecules were tested on TOM20 ubiquitylation (assay: TOM20-ubiquitylation assay (western blot of cell lysates)). Conditions: antimycin A/oligomycin mitophagy trigger, concentration for 1.5-fold gain of TOM20-Ub.
Format: cell-based, Human
From the text: TOM20-Ubiquitylation Assay Human cell lines can be challenged with mitochondrial depolarizing agents (ionophores (eg. CCCP, valinomycin), mitochondrial complex inhibitors (oligomycin, antimycin A)) to induce ubiquitylation of TOM20, which is then further promoted in the presence of USP30 inhibitors. TOM20 ubiquitylation is subsequently assessed through western blotting of the cell lysates, with TOM20 ubiquitylation adduct detection possible due to an 8 kDa molecule weight increase for each molecule of ubiquitin added, resulting in laddering of a TOM20 immunoreactive band. TOM20-ubiquitylation levels can be quantified using chemiluminescence densitometry of laddered immunoreactive bands.

SMILES	EC1.5x (Geomean, nM); TOM20-Ub 1.5-fold gain
N#Cc1ccc(C2CC2)c(-c2cnc(C(=O)N(C3CC3)[C@@H]3C[C@@H](Cn4ccnn4)N(C#N)C3)o2)c1 [Example 1, N-((3R,5S)-5-((1H-1,2,3-Triazol-1-yl)methyl)-1-cyanopyrrolidin-3-yl)-5-(5-cyano-2-cyclopropylphenyl)-N-cyclopropyloxazole-2-carboxamide]	17 nM
